The values below come from patent US5935958A, “Muscarinic antagonists” (Schering Corporation, priority 1997, dated 1999).

In test [1] the target is T1, cloned human m2 muscarinic receptor (Homo sapiens, UniProt P08172).
T1 construct: expressed in transfected cells; host or cells: CHO (stably transfected), membranes
T1 sequence (P08172 1-466): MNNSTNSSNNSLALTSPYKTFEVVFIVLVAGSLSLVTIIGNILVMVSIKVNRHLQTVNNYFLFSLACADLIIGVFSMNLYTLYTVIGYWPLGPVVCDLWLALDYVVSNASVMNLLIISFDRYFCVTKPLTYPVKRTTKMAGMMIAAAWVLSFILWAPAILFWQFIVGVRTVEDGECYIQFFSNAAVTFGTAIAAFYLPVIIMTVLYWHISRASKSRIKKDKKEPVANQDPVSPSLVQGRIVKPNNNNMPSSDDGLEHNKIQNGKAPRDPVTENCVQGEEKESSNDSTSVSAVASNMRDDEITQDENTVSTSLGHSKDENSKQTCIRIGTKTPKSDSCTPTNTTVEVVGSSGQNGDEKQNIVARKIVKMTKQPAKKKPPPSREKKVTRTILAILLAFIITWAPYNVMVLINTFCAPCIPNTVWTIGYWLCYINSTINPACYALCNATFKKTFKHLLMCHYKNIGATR
As to the kind of experiment: Muscarinic binding, inhibition of 3H-QNB binding, m2. The conditions noted are these: for m1/m2 (Ki ratio): Ki for m1 receptors divided by Ki for m2 receptors, higher ratio = greater m2 selectivity; for m4/m2 (Ki ratio): Ki for m4 divided by Ki for m2; for m1/m2 and m4/m2 ratios, in words: tests reported in Table 1.

Test [2] concerns m2 muscarinic. The note with it: Baumgold et al., Eur. J. Pharmacol., 251 (1994) 315-317; cited from earlier work.
The target of test [3] is T2, cloned human m1 muscarinic receptor (Homo sapiens, UniProt P11229).
T2 construct: expressed in transfected cells; host or cells: CHO (stably transfected), membranes
T2 sequence (P11229 1-460): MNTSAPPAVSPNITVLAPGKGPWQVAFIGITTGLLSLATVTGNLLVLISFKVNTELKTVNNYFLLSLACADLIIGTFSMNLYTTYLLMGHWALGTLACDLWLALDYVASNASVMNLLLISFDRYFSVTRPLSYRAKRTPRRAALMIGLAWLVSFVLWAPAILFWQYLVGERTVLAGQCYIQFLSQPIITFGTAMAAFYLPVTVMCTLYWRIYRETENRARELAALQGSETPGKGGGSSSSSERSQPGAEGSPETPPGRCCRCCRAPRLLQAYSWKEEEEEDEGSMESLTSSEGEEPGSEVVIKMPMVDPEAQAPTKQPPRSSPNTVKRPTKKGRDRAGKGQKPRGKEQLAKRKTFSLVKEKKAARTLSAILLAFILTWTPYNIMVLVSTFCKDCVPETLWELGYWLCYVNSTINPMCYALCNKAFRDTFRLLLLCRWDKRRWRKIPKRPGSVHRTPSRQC
As to the kind of experiment: Muscarinic binding, inhibition of 3H-QNB binding, m1. The note with it: CHO cell membranes, 25° C., 90 minutes.

The target in test [4] is T3, cloned human m4 muscarinic receptor (Homo sapiens, UniProt P08173).
T3 construct: expressed in transfected cells; host or cells: CHO (stably transfected), membranes
T3 sequence (P08173 1-479): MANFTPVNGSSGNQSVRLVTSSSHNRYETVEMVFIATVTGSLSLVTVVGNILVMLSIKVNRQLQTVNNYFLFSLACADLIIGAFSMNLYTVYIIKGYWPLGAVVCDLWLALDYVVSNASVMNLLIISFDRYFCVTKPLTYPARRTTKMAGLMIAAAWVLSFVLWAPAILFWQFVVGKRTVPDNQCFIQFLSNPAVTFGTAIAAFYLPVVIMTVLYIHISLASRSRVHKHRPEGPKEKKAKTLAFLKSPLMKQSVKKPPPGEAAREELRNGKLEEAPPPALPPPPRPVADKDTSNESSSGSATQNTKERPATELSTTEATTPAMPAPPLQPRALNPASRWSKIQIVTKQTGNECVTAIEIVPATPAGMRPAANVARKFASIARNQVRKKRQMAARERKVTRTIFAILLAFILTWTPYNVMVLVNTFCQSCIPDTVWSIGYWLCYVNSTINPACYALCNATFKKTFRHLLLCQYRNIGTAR
As to the kind of experiment: Muscarinic binding, inhibition of 3H-QNB binding, m4. The note with it: CHO cell membranes, 25° C., 90 minutes.

Take `c1cnc(Oc2ccc3c(c2)CC(CC2CCCCC2)C3N2CCN(C3CCCCC3)CC2)nc1` (stereo not shown) [Compound 12, 2-[[1-(4-Cyclohexyl-1-piperazinyl)-2-(cyclohexylmethyl)-2,3-dihydro-1H-inden-5-yl]oxy]pyrimidine]: in test [1], the “m1/m2 (Ki ratio)” value is 1.9.
For the molecule `c1cnc(Oc2ccc3c(c2)CCC3N2CCN(C3CCCCC3)CC2)nc1` (single isomer, unassigned) [Compound 10], in test [1], the “m1/m2 (Ki ratio)” value is on record as 13.2; the “m4/m2 (Ki ratio)” value is reported as 1.5; the “m1/m2 and m4/m2 ratios, in words” value is “useful values of the m1/m2 and m4/m2 ratios”.
For `c1cnc(Oc2ccc3c(c2)CCCC3N2CCN(C3CCCCC3)CC2)nc1` (stereo not shown) [Compound 5, 4-Cyclohexyl-1-piperazinyl-[6-[(2-pyrimidinyl)oxy]]-1,2,3,4-tetrahydro-naphthalene], in test [1], the “m1/m2 (Ki ratio)” value came out at 7.5 and the “m4/m2 (Ki ratio)” value was determined as 1.6.
On to `Nc1ccc(Oc2ccc3c(c2)CCCC3N2CCN(C3CCCCC3)CC2)cc1` (stereo not shown) [Compound 7], for which, in test [1], the “m1/m2 (Ki ratio)” value came out at 4.0 and the “m4/m2 (Ki ratio)” value is reported as 0.8.
As to `O=[N+]([O-])c1ccc(Oc2ccc3c(c2)CCCC3N2CCN(C3CCCCC3)CC2)cc1` (stereo not shown) [Compound 6], in test [1], the “m1/m2 (Ki ratio)” value is recorded as 6.6 and the “m4/m2 (Ki ratio)” value turned out to be 0.8.
Consider `C[C@H]1CC[C@@H]2N(C1)C[C@H]1[C@@H]3C[C@H]4[C@@H](CC(=O)[C@H]5C[C@@H](Cl)CC[C@@]54C)[C@@H]3CC[C@H]1[C@]2(C)O` [3-α-chloroimperialine], for which, in test [2], the “m2 muscarinic antagonist selectivity, in words” value was “highly selective m2 muscarinic antagonist”.
Take `O=[N+]([O-])c1ccc(Oc2ccc3c(c2)OCCC3N2CCN(C3CCCCC3)CC2)cc1` (stereo not shown) [Compound 2, 1-Cyclohexyl-4-[7-[(4-nitrophenyl)oxy]-chroman-4-yl]-piperazine]: the “m1/m2 (Ki ratio)” value in test [1] was determined as 1.5.
For `CC(=O)Nc1ccc(Oc2ccc3c(c2)OCCC3N2CCN(C3CCCCC3)CC2)cc1` (stereo not shown) [Compound 4], in test [1], the “m1/m2 (Ki ratio)” value worked out at 1.0 and the “m4/m2 (Ki ratio)” value was greater than 0.9.
Regarding `c1cnc(Oc2ccc3c(c2)CCC3N2CCN(C3CCCCC3)CC2)nc1` (stereo not shown) [Compound 9], in test [1], the “m1/m2 (Ki ratio)” value turned out to be 7.7; the “m1/m2 and m4/m2 ratios, in words” value is “useful values of the m1/m2 and m4/m2 ratios”.
Regarding `COc1ccc(S(=O)(=O)c2ccc3c(c2)CCC3N2CCN(C3CCCCC3)C[C@H]2C)cc1` (single isomer, unassigned) [Compound 14], in test [1], the “m1/m2 (Ki ratio)” value stood at 18.4; the “m4/m2 (Ki ratio)” value was 2.6; the “m1/m2 and m4/m2 ratios, in words” value was “useful values of the m1/m2 and m4/m2 ratios”.
`O=S(=O)(c1ccccc1)c1ccc2c(c1)CCC2N1CCN(CCO)CC1` (stereo not shown) [Compound 1]: in test [1], the “m1/m2 (Ki ratio)” value is reported as 4.5 and the “m4/m2 (Ki ratio)” value is recorded as 1.3.
On to `COc1ccc(S(=O)(=O)c2ccc3c(c2)CCC3N2CCC(N3CCCCC3)CC2)cc1` (stereo not shown) [Compound 13], for which, in test [1], the “m1/m2 (Ki ratio)” value turned out to be 4.0 and the “m4/m2 (Ki ratio)” value is on record as 2.0.
Take `c1cnc(Oc2ccc3c(c2)CCC3N2CCN(C3CCCCC3)CC2)nc1` (single isomer, unassigned) [Compound 11]: in test [1], the “m1/m2 (Ki ratio)” value was 3.6.
As to `COc1ccc(S(=O)(=O)c2ccc3c(c2)CCC3N2CCN(C3CCCCC3)C[C@H]2C)cc1` (single isomer, unassigned) [Compound 15], in test [1], the “m1/m2 (Ki ratio)” value was 11.2; the “m4/m2 (Ki ratio)” value is given as 2.5; the “m1/m2 and m4/m2 ratios, in words” value is “useful values of the m1/m2 and m4/m2 ratios”.
The term Ki denotes a dissociation constant, usually derived from enzyme kinetics or from competition with a known ligand. For `c1cnc(Oc2ccc3c(c2)CCCCC3N2CCN(C3CCCCC3)CC2)nc1` (stereo not shown) [Compound 8], the Ki in test [3] is 88 nM; in test [4], 23 nM; in test [1] (3H-QNB binding, CHO cell membranes, 25° C., 90 minutes), 27 nM. Further, in test [1], the “m1/m2 (Ki ratio)” value amounted to 3.3. Also, the “m4/m2 (Ki ratio)” value in test [1] was determined as 0.9.
Take `Nc1ccc(Oc2ccc3c(c2)OCCC3N2CCN(C3CCCCC3)CC2)cc1` (stereo not shown) [Compound 3]: in test [1], the “m1/m2 (Ki ratio)” value was determined as 0.6 and the “m4/m2 (Ki ratio)” value is reported as 0.3.
